# pIC50: −log10 of the molar value.
# What was measured:
# A549 cells [1] = test: BrdU cell proliferation assay; format: cell-based; conditions: Homo sapiens; A549, 72 h of incubation, 5-30 μM; read-out: IC50, BrdU incorporation
# Experimental: Measurement of the BrdU, a thymidine analogue, is a sensitive method used for the detection of DNA synthesis during the S phase of the cell cycle.
# A549 tumor cells were plated at a density of 5 × 10^3 cells/well in a volume of 80 µL (96-well plates). After 24 h of incubation in the respective medium, we added the indole phytoalexin 49 in concentrations of 5–30 µM. After 48 h of incubation with the test substance, we added BrdU labeling solution and incubated for another 24 h. Subsequently, the cells were fixed for 30 min with a fixing solution, aspirated and incubated with peroxidase-conjugated anti-BrdU antibody (100 µL, 1:100). After washing with washing buffer 3 times, TMB substrate solution (tetramethylbenzidine, Roche, Basel, Switzerland) was added in a volume of 100 uL to each well. During the reaction, 25 µL of 1M H2SO4 was added as a stop solution, and the amount of BrdU incorporated was detected with an automated Cytation™ 3 Cell Imaging Multi-Mode Reader (Biotek, Winooski, VT, USA) at a wavelength of 450 nm. Three independent analyses were performed.
# Beclin-1 = test: Western blot, Beclin-1; format: cell-based, human; conditions: A549, all time periods, most significantly after 24 h
# From the text: Beclin-1 plays a key role in the autophagy process, which is activated in cells during periods of stress. It ensures the recruitment of autophagosomal proteins to the pre-autophagosomal structure (PAS) and is part of a complex that is essential for the induction of autophagy (VSP34 complex). It also interacts with proteins from the Bcl-2 family, by which it can be inactivated or cleaved by caspases. This is considered a crosstalk between autophagy and apoptosis. […] There is no mention in the literature focusing on Beclin-1 (and even autophagy) and indole phytoalexins. However, another phytoalexin, resveratrol, has been described to stimulate autophagy in oral cancer cells. […] Later, Fan et al. confirmed the ability of resveratrol to induce autophagy associated with upregulation of Beclin-1 also in lung cancer A549 cells.
# A549 cells were seeded on Petri dishes (55 cm^2) at a density of 1 × 10^6 and allowed to culture in the medium. After 24 h, the test substance was added, and the cells were incubated for 24, 48 and 72 h. […] After lysis, the cells were sonicated, and the protein concentration in the samples was quantified using the Pierce® BCA Protein Assay Kit (Thermo Scientific, Rockford, IL, USA) and measured by an automated Cytation™ 3 Cell Imaging Multi-Mode Reader (Biotek) at a wavelength of 570 nm. […]
# [2] = tested on: glutathione reductase (GR); test: GR activity in treated A549 cells; format: cell-based, human; conditions: A549, 20 µM
# From the text: Glutathione is an important intracellular molecule involved in carcinogen detoxification. On the other hand, its elevated state in cancer cells is often associated with resistance to chemotherapy. […] Because high levels of GSH are associated with cancer cell resistance, the GHS-depleting effect of compound 49 could be interesting due to new cancer chemosensitizer development. In the case of GST and GR, we hypothesize that an increase in the activity of both enzymes may be a compensatory mechanism induced by GSH depletion.
# Both floating and adherent A549 cells were harvested at 24, 48, and 72 h after treatment with compound 49 (20 µM). SOD determination kit, Glutathione Peroxidase Cellular Activity Assay kit, Glutathione Reductase Assay Kit and Glutathione-S-transferase (GST) Assay Kit (all Sigma Aldrich, Germany) were used for the detection of relevant enzyme activity. Reduced glutathione (GSH) content was measured by the method originally described by Floreani et al.. Assays were performed on an M 501 single beam UV/VIS spectrophotometer (Spectronic Camspec Ltd., Leeds, United Kingdom). All measured parameters were calculated per milligram or gram of protein determined using the bicinchoninic acid assay.
# A549 cells [3] = test: Cell cycle analysis by flow cytometry; format: cell-based, human
# Experimental: To examine whether the antiproliferative effect of compound 49 is associated with cell cycle arrest, flow cytometry analyses of cell cycle progression were performed.
# The A549 lung human alveolar adenocarcinoma cells were seeded at a density of 2 × 10^5/dish. After 24 h incubation, the cells were treated with indole phytoalexin 49 at 20 µM concentration alone or after 1 h pre-treatment with chloroquine (20 µM), and the control group with DMSO (v/v 0.02%). The whole population of treated cells (adherent and floating) for cell cycle analyses was harvested at three different times (24, 48 and 72 h), washed in cold washing buffer (PBS), fixed in cold 70% ethanol and stored at −20 °C at least overnight. For flow cytometry analyses, cell suspensions were washed with PBS, resuspended in staining solution (Triton X-100 final concentration 0.1%, ribonuclease A final concentration 0.5 mg/mL, and propidium iodide final concentration 0.025 mg/mL) and incubated for 30 min in the dark at RT. Stained cells were analyzed using a BD FACSCalibur^TM Flow Cytometer (Becton Dickinson, San Jose, CA, USA) in FL-2 channel. Three independent analyses were performed.
smiles,measurement,setting,value
"CC(C)(C)OC(=O)n1cc(CNC(=O)Nc2ccc(NC(=O)NCc3cn(C(=O)OC(C)(C)C)c4ccccc34)cc2)c2ccccc21 [Compound 49, N,N′-(1,4-phenylene)bis{N′-[1-(tert-butoxycarbonyl)indol-3-yl]methyl (urea)}]",pIC50,A549 cells [1],4.79
same,Beclin-1 expression,Beclin-1,significantly upregulated
same,GR,[2]; 24 h,8.200 ± 2.97 μkat/mg Prot
same,GR,[2]; 48 h,11.270 ± 1.04 μkat/mg Prot
same,GR,[2]; 72 h,10.100 ± 2.89 μkat/mg Prot
same,"changes in the G1, S or G2/M phases of the cell cycle","A549 cells [3]; A549, 20 µM, 24, 48 and 72 h, vs DMSO",non-significant changes
same,sub-G0/G1 subpopulation (marker of apoptosis),"A549 cells [3]; A549, 20 µM, all time points, vs DMSO control",minimal changes
same,"cell cycle, combination with CQ","A549 cells [3]; A549, 49 20 µM + CQ 20 µM, 24 h, vs DMSO, CQ or 49 alone",significant cell cycle arrest at the G1 phase
same,"subG0/G1 subpopulation, combination with CQ","A549 cells [3]; A549, 49 20 µM + CQ 20 µM, all time points",non-significant changes

# Source: paper PMC9822133, “Design, Synthesis and Antiproliferative Evaluation of Bis-Indole Derivatives with a Phenyl Linker: Focus on Autophagy” (Molecules, 2022)
